Legend:
[1] = tested on: various S. thermophilus strains; test: Competence induction over the panel of S. thermophilus strains (summary of Table 9); format: cell-based, Streptococcus thermophilus
Experimental: Similarly to the protocol used in example 4, various S. thermophilus strains, including LMD-9, CNRZ1066 and LMG18311 used as controls, were pre-cultivated in M17-lactose medium. The cells of the precultures were harvested (5000 g, 9 minutes, 20° C.) and washed twice in CDM and then resuspended in CDM. The washed cells were diluted in fresh CDM medium to obtain an optical density of 0.05, and then incubated at 37° C. After 1.5 h of incubation, in one set of experiment, 1 μM of one of the tested synthetic peptides (LPYFAGCL) (SEQ ID NO: 85) and 1 μg/mL of pGIUD0855cat DNA were added to the culture, whereas 1 μg/mL of DNA but no synthetic peptide was added to the second set of experiment. Plasmid pGIUD0855cat is a pUC18-derivative containing a chloramphenicol resistance cassette flanked by 1-kb fragments corresponding to the upstream and downstream regions of stu0855. Upon transformation, it promotes the genetic replacement of stu0855 by P32-cat through homologous recombination (FIG. 7). The cultures were grown during 6 hours and serial dilutions were plated on the surface of M17-lactose agar medium containing 5 μg/mL of chloramphenicol to measure transformation efficiency. Transformed S. thermophilus cells were selected at 37° C.; when transformants were obtained, the transformation efficiency was calculated and is given in Table 9.

S. salivarius JIM8777 = test: Natural transformation in CDM upon addition of synthetic peptide; format: cell-based, Streptococcus salivarius
Experimental: Similarly to the protocol used in example 4, strains LMD-9, LMG18311, CNRZ1066 and JIM8777 were pre-cultivated in M17-lactose medium. The cells of the precultures were harvested (5000 g, 9 minutes, 20° C.) and washed twice in CDM and then resuspended in CDM. The washed cells were diluted in fresh CDM medium to obtain an optical density of 0.05, and then incubated at 37° C. After 1.5 h of incubation, in one set of experiment, 1 μM of one of the tested synthetic peptides and 1 μg/mL of pGIUD0855ery DNA (in case of S. thermophilus strains), or 1 μg/ml of pG+host09 DNA (in case of S. salivarius strains) were added to the culture, whereas 1 μg/mL of DNA but no synthetic peptide was added to the second set of experiment. The cultures were grown during 6 hours and serial dilutions were plated on the surface of M17-lactose agar medium containing 2.5 μg/mL of erythromycin to measure transformation efficiency. Transformed S. thermophilus and S. salivarius cells are selected at 37° C. and 29° C., respectively.
Day 2: • Centrifuge Day 1—culture (centrifugation parameters: 5000 g, 9 minutes, 15° C.) and perform two washing steps with one volume (10 mL) of CDM (centrifugation parameters: 5000 g, 9 minutes, 15° C.). • Dilute the culture in 10 mL CDM to obtain an OD600nm of 0.05. • A small volume of S. thermophilus cultures (300 μL) is then transferred in white microplate with a transparent bottom (655095; Greiner, Alphen aid Rijn, The Netherlands) and is grown at 37° C. Luminescence at 595 nm and optical density at 600 nm are recorded with the automatic Synergy HT multi-mode microplate reader. The luciferase activity catalysed by LuxAB requires the presence of nonanal as substrate. In this experimental set-up, nonanal (Acros Organics ref. 204-688-5) is supplied to the cultures by placing 50 μL of a solution containing 1% nonanal diluted in mineral oil in the spaces between the wells of a covered microplate (11). The nonanal present in the solution will become volatile and there will be an equilibrium between the concentration of nonanal present in the air and in the culture samples. The luminescence and absorbance are scanned every 10 minutes during 6 hours. • To perform a competence experiment, 1 μg of donor DNA is added in the 300 μL samples in the beginning of incubation. […] In case of the sample that received DNA, make different 10-fold dilutions of the sample and plate 100 μL on the same solid selective medium. Check the viability of the cells in the samples by plating 10 μL of serial 10-fold dilutions of the cultures on M17, lactose 1% medium. Transformants are picked following 24 h of incubation at 37° C. in anaerobic conditions (gaspak BBL). […]

| Substance | Improvement of the efficiency of transformation by the addition of the peptide ([1]; 1 μM LPYFAGCL versus no peptide) | Number of strains competent when CDM is supplemented with the peptide ([1]; 1 μM LPYFAGCL, 9 competent without peptide) | Number of strains whose efficiency of transformation was greatly improved by the addition of the peptide ([1]; out of the 19 competent strains) | Transformation rate, With peptide addition (S. salivarius JIM8777; 1 μM PYFAGCL, 1 μg/mL pG+host9) | Complementation of the transformation defect in CDM (S. salivarius JIM8777; 1 μM peptide, result in words) |
| --- | --- | --- | --- | --- | --- |
| LPYFAGCL (fragment) [synthetic peptide corresponding to a C-terminal fragment of Shp316] | up to 6 Log | 19 strains | 17 strains |  |  |
| PYFAGCL (fragment) |  |  |  | 3.07 × 10^−6 | complements the transformation defect |

Source: patent US9243254B2, “Method for transforming a bacterium belonging to the streptococcus genus by natural competence” (priority 2009, dated 2016)
